Values of other authors, collected in PubChem BioAssay AID1259409 (Chemical Carcinogenesis Research Information System (CCRIS), 2018).

System: rodent chemically induced tumor inhibition, incidence and multiplicity
Test: CCRIS tumor inhibitor studies
Settings: Route [Inhibitor]: ORAL, Species: RAT, Promoter: NONE USED

SMILES: O=P(O)(O)OC1C(OP(=O)(O)O)C(OP(=O)(O)O)C(OP(=O)(O)O)C(OP(=O)(O)O)C1OP(=O)(O)O (stereo unspecified)
- tumour outcome (control, treated, inhibition, significance) (Carcinogen: 7,12-DIMETHYLBENZ[A]ANTHRACENE, 57-97-6, Dose [Inhibitor]: 0, 2% IN DIET FOR 35 WK BEGINNING POST CARCINOGEN DOSE (STUDY DURATION: 36 WK), Strain/Sex: SPRAGUE-DAWLEY/FEMALE, Target Tissue: Type of Lesion: EAR DUCT: TUMOR, Dose [Carcinogen]: 50 MG/KG BW IN CORN OIL ONCE): 5/15 (33%), 2/15 (13%), 61%, not significant
- tumour outcome (control, treated, inhibition, significance) (Carcinogen: 7,12-DIMETHYLBENZ[A]ANTHRACENE, 57-97-6, Dose [Inhibitor]: 0, 2% IN DIET FOR 35 WK BEGINNING POST CARCINOGEN DOSE (STUDY DURATION: 36 WK), Strain/Sex: SPRAGUE-DAWLEY/FEMALE, Target Tissue: Type of Lesion: MAMMARY GLAND: ADENOCARCINOMA OR FIBROADENOMA, Dose [Carcinogen]: 50 MG/KG BW IN CORN OIL ONCE): 14/15 (93%), 15/15 (100%), -8%, not significant
- tumour outcome (control, treated, inhibition, significance) (Carcinogen: 7,12-DIMETHYLBENZ[A]ANTHRACENE, 57-97-6, Dose [Inhibitor]: 0, 15 MILLIMOLAR IN DRINKING WATER BEGINNING 1 WK PRIOR TO CARCINOGEN DOSE AND CONTINUING FOR 16 WK (STUDY DURATION: 16, Strain/Sex: SPRAGUE-DAWLEY/FEMALE, Target Tissue: Type of Lesion: MAMMARY GLAND: CARCINOMA, Dose [Carcinogen]: 20 MG IN 1 ML SESAME OIL ONCE): 7/10 (70%), 17/21 (81%), -16%, not calculated
- tumour outcome (control, treated, inhibition, significance) (Carcinogen: 7,12-DIMETHYLBENZ[A]ANTHRACENE, 57-97-6, Dose [Inhibitor]: 0, 15 MILLIMOLAR IN DRINKING WATER FOR 47 WK BEGINNING 2 WK PRIOR TO CARCINOGEN DOSE (STUDY DURATION: 47 WK), Strain/Sex: SPRAGUE-DAWLEY/FEMALE, Target Tissue: Type of Lesion: MAMMARY GLAND: TUMOR, Dose [Carcinogen]: 5 MG IN 1 ML CORN OIL ONCE): 37/40 (93%), 27/38 (71%), 24%, p<0.05
- tumour outcome (control, treated, inhibition, significance) (Carcinogen: AZOXYMETHANE, 25843-45-2, Dose [Inhibitor]: 0, 2% IN A HIGH FAT LOW FIBER DIET FOR DURATION OF STUDY BEGINNING 3 WK PRIOR TO CARCINOGEN TREATMENT (STUDY DURATION: 3, Strain/Sex: SPRAGUE-DAWLEY/FEMALE, Target Tissue: Type of Lesion: COLON: TUMOR, Dose [Carcinogen]: 15 MG/KG BW 1/WK FOR 2 WK): 65%, 30%, 54%, p<0.05
- tumour outcome (control, treated, inhibition, significance) (Carcinogen: AZOXYMETHANE, 25843-45-2, Dose [Inhibitor]: 0, 2% IN DRINKING WATER BEGINNING 1 WK POST CARCINOGEN DOSE AND CONTINUING FOR DURATION OF STUDY (STUDY DURATION: 36 WK), Strain/Sex: F344/MALE, Target Tissue: Type of Lesion: COLON: CARCINOMA, Dose [Carcinogen]: 30 MG/KG ONCE AT 6 WK OF AGE): 10/12 (83%), 3/12 (25%), 70%, p=0.0045
- tumour outcome (control, treated, inhibition, significance) (Carcinogen: AZOXYMETHANE, 25843-45-2, Dose [Inhibitor]: 1% IN DRINKING WATER BEGINNING 1 WK PRIOR TO FIRST CARCINOGEN DOSE (STUDY DURATION: 9 MO), Strain/Sex: F344/MALE, Target Tissue: Type of Lesion: LARGE INTESTINE: CARCINOMA, Dose [Carcinogen]: 8 MG/KG BW INJECTED IN HIND LEG 1/WK FOR 12 WK): 100%, 100%, 0%, not significant
- tumour outcome (control, treated, inhibition, significance) (Carcinogen: AZOXYMETHANE, 25843-45-2, Dose [Inhibitor]: 2% IN DRINKING WATER BEGINNING 2 WK POST LAST CARCINOGEN DOSE (STUDY DURATION: 10 MO), Strain/Sex: F344/MALE, Target Tissue: Type of Lesion: COLON: TUMOR, Dose [Carcinogen]: 8 MG/KG BW INJECTED IN HIND LEG 1/WK FOR 4 WK): 43%, 10%, 77%, not calculated
- tumour outcome (control, treated, inhibition, significance) (Carcinogen: N-METHYL-N-NITROSOUREA, 684-93-5, AZOXYMETHANE, 25843-45-2, Carcinogen: N-METHYL-N-NITROSOUREA, 684-93-5, AZOXYMETHANE, 25843-45-2, Dose [Inhibitor]: 0, 2% IN A HIGH FAT LOW FIBER DIET FOR DURATION OF STUDY BEGINNING 2 WK PRIOR TO CARCINOGEN TREATMENT (STUDY DURATION: 3, Strain/Sex: SPRAGUE-DAWLEY/FEMALE, Target Tissue: Type of Lesion: COLON: TUMOR, Dose [Carcinogen]: 50 MG/KG BW MNU ONCE FOLLOWED BY 15 MG/KG BW AOM 1/WK FOR 2 WK): 70%, 30%, 57%, p<0.05
- tumour outcome (control, treated, inhibition, significance) (Carcinogen: N-METHYL-N-NITROSOUREA, 684-93-5, AZOXYMETHANE, 25843-45-2, Carcinogen: N-METHYL-N-NITROSOUREA, 684-93-5, AZOXYMETHANE, 25843-45-2, Dose [Inhibitor]: 0, 2% IN A HIGH FAT LOW FIBER DIET FOR DURATION OF STUDY BEGINNING 2 WK PRIOR TO CARCINOGEN TREATMENT (STUDY DURATION: 3, Strain/Sex: SPRAGUE-DAWLEY/FEMALE, Target Tissue: Type of Lesion: MAMMARY GLAND: CARCINOMA, Dose [Carcinogen]: 50 MG/KG BW MNU ONCE FOLLOWED BY 15 MG/KG BW AOM 1/WK FOR 2 WK): 100%, 50%, 50%, p<0.05
- tumour outcome (control, treated, inhibition, significance) (Carcinogen: N-METHYL-N-NITROSOUREA, 684-93-5, Dose [Inhibitor]: 0, 2% IN HIGH FAT LOW FIBER DIET FOR DURATION OF STUDY BEGINNING 2 WK PRIOR TO CARCINOGEN TREATMENT (STUDY DURATION: 32, Strain/Sex: SPRAGUE-DAWLEY/FEMALE, Target Tissue: Type of Lesion: MAMMARY GLAND: CARCINOMA, Dose [Carcinogen]: 50 MG/KG BW ONCE): 95%, 40%, 58%, p<0.05
